# Where no end group is shown, it is not given here.
# Columns and labels:
# [1] = system: rabbit anti-G17 (C-terminal) antiserum; experiment: Displacement of radiolabelled G17 from C-terminal specific antiserum; type: binding; conditions: antiserum 100 μg/ml on solid phase, radiolabelled G17 100 pg/ml; FIG. 12
# Description: (§1) Antisera were absorbed onto a solid phase at a concentration of 100 μg/ml and displacement was determined in a competitive assay with a fixed concentration of radiolabelled G17 (100 pg/ml) and increasing concentrations of unlabelled ligands (1-25,000 pg/ml).
# [2] = system: crypts and tumors of the small and large intestine; experiment: Bromodeoxyuridine in situ proliferation index in Min mice; type: in vivo, mouse; conditions: hypergastrinemic mice
# Description: One hour prior to termination, mice were injected with DNA analogue bromodeoxyuridine in order to determine the comparative in situ proliferation activity. The samples were formalin fixed, paraffin embedded, sections were cut and stained with an anti-bromodeoxyuridine antibody.
# Serum gastrin level was measured by RIA. Prior to end of treatment, proliferative index was determined by the bromodeoxyuridine method. • Group 1.
# [3] = system: Min mouse model of familial adenomatous polyposis
# Description: Accordingly, the effect of gastrin neutralization on Min mouse survival was determined.
# The Min mice used in the study were bred within the Academic Unit of Cancer Studies at Nottingham University (U.K.) on a C57/BL background. […] The Min positive mice were then placed into each arm of the therapy on an ongoing basis.
# Gastrin neutralization was achieved by using an immunogen, i.e. the gastrin immunogen preparation, which is composed of the amino terminal domain of gastrin-17 linked, via an amino acid spacer, to diphtheria toxoid which acts as the immunogenic carrier. The antibodies raised by virtue of the design of the immunogen, cross-react with both amidated and glycine-extended gastrin-17, known proliferative forms of gastrin. Min mice were immunized s.c. with the hG17-DT immunogen (100 mg/mouse) at week 4, with subsequent injections at 3 weekly intervals. […] The hG17-DT immunogen was administered to mice at 4 weeks of age to examine its effect on mice with an established tumor burden.
# • Group 1. OME 75 mg/kg daily oral treatment • Group 2. OME+GSI 100 mg oral dose/mouse day 0 and every 3 weeks • Group 3. Oral vehicle+control immunogen • Group 4. Oral vehicle−control immunogen
# plasma gastrin [4] = conditions: 400 μmol/kg, 14 mg/kg, 10 weeks; cited from earlier work
# plasma gastrin [5] = conditions: cited from earlier work
# plasma gastrin [6] = conditions: cited from earlier work; remark: listed apart in the source
# [7] = molecular target: rabbit anti-human G17(1-9):DT (N-terminal) antiserum; experiment: Displacement of radiolabelled G17 from N-terminal specific antiserum; type: binding; conditions: antiserum 100 μg/ml on solid phase, radiolabelled G17 100 pg/ml; FIG. 11
# Description: as §1
# [8] = system: polypoid carcinomas from the large and small intestine of Min mice; experiment: In vitro proliferation of Min mouse polypoid carcinomas, tetrazolium-based colorimetric assay; type: cell-based
# Description: Polypoid carcinomas have been established in vitro from the large and small intestine of Min mice. Proliferation was assessed by a tetrazolium-based colorimetric ELISA assay.
# [9] = same dose (400 μmol/kg, 14 mg/kg)
# [10] = patients receiving 40 mg daily for eight years
molecule,measurement,setting,value
"G34: gastrin-34, unlabelled ligand in the displacement assay (QLGPQGPPHLVADPSKKQGPWLEEEEEAYGWMDF; ends and bridges not checked; UniProt P01350 59-92, looked up) [Peptide G34]","IC25, displacement of radiolabelled G17",[1],500 pg/mL
COc1ccc2[nH]c([S+]([O-])Cc3ncc(C)c(OC)c3C)nc2c1 (centres unmarked) [omeprazole],"proliferating cells, normal colonic mucosa","[2]; increased from 9.46%, p<0.05 Mann-Whitney",20.1%
same,"proliferating cells, colonic neoplasia","[2]; increased from 22.3%, p<0.01",35.0%
same,50% survival,"[3]; Example 2, OME 75 mg/kg daily oral, control group 16 weeks, p=0.0001 log rank",8 weeks
same,effect of omeprazole-induced hypergastrinemia on survival of Min mice,[3]; high daily doses of omeprazole,decreases the survival
same,median survival,"[3]; omeprazole-induced hypergastrinemia, reduced from approximately 10 weeks",~6 weeks
same,ECL density increase at the end of treatment,plasma gastrin [4],37%
same,increase in plasma gastrin during treatment,plasma gastrin [4],threefold
same,stomach weight increase at the end of treatment,plasma gastrin [4],34%
same,increase in gastrin compared to controls,"plasma gastrin [5]; female rats, long-term (1-year) daily 400 μmol/kg, 14 mg/kg",15 fold
same,ECL cell density increase,plasma gastrin [5]; [9],about 300%
same,increase of gastrin levels,plasma gastrin [5]; [9],10 fold
same,markedly elevated gastrin levels,"plasma gastrin [6]; occasionally, long term treatment, 20-60 mg/day",10 fold
same,prevalence of micronodular hyperplasia in atrophic gastritis,plasma gastrin [6]; [10],48%
same,prevalence of micronodular hyperplasia in interstitial gastritis,plasma gastrin [6]; [10],19.6%
same,prevalence of micronodular hyperplasia in superficial corpus gastritis,plasma gastrin [6]; [10],3.6%
"G17: gastrin-17, unlabelled ligand in the displacement assay [Peptide G17]","50% inhibitory concentration (IC50), displacement of radiolabelled G17",[7],3.5 ng/mL
same,"50% inhibitory concentration (IC50), displacement of radiolabelled G17",[1],800 pg/mL
"amidated gastrin: amidated gastrin added to Min mouse tumor cultures (QGPWLEEEEEAYGWMDF-NH2; ends and bridges not checked; UniProt P01350 76-92, looked up)",proliferation of large intestinal tumor in vitro,[8],not increased
same,proliferation of small intestinal tumor in vitro,[8],not increased

# Reference: patent US20050187152A1, “Prevention and treatment of hypergastrinemia” (Aphton Corporation, priority 1998, published 2005)
